# Patent publication US12708624B2, “Methods of treating pulmonary fibrosis” (Amplia Therapeutics Limited, priority 2020, dated 2026)
# Experiments:
# [1] = tested on: idiopathic pulmonary fibrosis; settings: cited from earlier work; for reduction in the rate of decline in FVC: patients with mild or moderate FVC impairment at baseline, over 1 year of treatment
# [2] = patients with IPF; cited from earlier work
# off-target kinase = settings: literature; cited from earlier work
# dog hepatocytes = assay: metabolites upon exposure to dog hepatocytes
# [3] = exposure following oral dosing in rats
# 467 other kinases = assay: KINOMEScan assay; type: binding; settings: tested at 1 micromolar; compared to 467 other kinases
# [4] = exposure following oral dosing in mice
# rat hepatocytes = assay: metabolites upon exposure to rat hepatocytes
# [5] = tested on: bleomycin-induced lung fibrosis; assay: bleomycin-induced lung fibrosis, treatment model; type: in vivo, C57BL/6 mice
# Protocol: (§1) FIG. 1. Protocols used to assess the ability of the compound of Formula I to prevent or treat lung fibrosis induced by intratracheal bleomycin (30 μl; 0.05 U/mouse) or PBS (30 μl; vehicle control).
# FIG. 4. […] (a) The Ashcroft score was used to obtain a semi quantitative analysis of fibrosis (n=4 mice per group). (b) Acid-soluble collagen content in the mouse lung (n=8 mice per group).
# (§2) FIG. 5. Measurements of airways hyper-responsiveness (AHR) after methacholine challenge in the mouse lung. Panels (a)-(d) prevention protocol at day 23 after a single intra-tracheal dose with PBS or bleomycin and oral dosing with the compound of formula I as indicated. Panels (e)-(h) treatment protocol at day 22 after a single intra-tracheal dose with PBS or bleomycin and oral dose with the compound of formula I as indicated. Panels (a, e) show airways resistance, (b, f) transpulmonary resistance, (c, g) elastance, and (d, h) compliance following challenge with 10 mg/ml methacholine.
# (§3) Lung fibrosis in female C57BL/6 mice aged between 6-8 weeks (ARC, Perth, Australia) was induced by a single intra-tracheal dose of bleomycin (0.05 U/mouse). Control mice received 30 μl of buffered saline.
# (§4) There were eight mice per group for all experiments and all mice were weighed daily during administration of the treatments.
# [6] = tested on: bleomycin-induced lung fibrosis; assay: bleomycin-induced lung fibrosis, prevention model; type: in vivo, C57BL/6 mice; settings: for lung damage (Ashcroft score): day 23, vs vehicle; for airways resistance (AHR): vs vehicle
# Protocol: as §1
# FIG. 3. Prevention Protocol. a) Measurement of mouse lung fibrosis on day 23 after treatment with PBS, bleomycin and vehicle, bleomycin and the compound of formula I 40 mg/kg or 80 mg/kg (n=8 mice per group). (a) The Ashcroft score was used to obtain a semi quantitative analysis of fibrosis (n=4 mice per group). (b) Acid-soluble collagen content in the mouse lung (n=8 mice per group).
# as §2, §3
# Mice in the prevention study were dosed orally once daily from 24 hours post bleomycin administration until day 22 with either 200 μl of vehicle (Sterile water containing 0.5% (w/v) hydroxypropylmethylcellulose, 0.5% (v/v) benzyl alcohol and 0.4% (v/v) Tween 80), or the compound of Formula I at a dosage of 40 mg/kg or 80 mg/kg by oral gavage.
# as §4
# primate hepatocytes = assay: metabolites upon exposure to primate hepatocytes
# common cytochrome P450s = assay: inhibition of common cytochrome P450s
# human hepatocytes = assay: metabolites upon exposure to human hepatocytes
# [7] = exposure following oral dosing in dogs
structure (smiles),measurement,setting,value
COC(=O)c1ccc2c(c1)NC(=O)/C2=C(\Nc1ccc(N(C)C(=O)CN2CCN(C)CC2)cc1)c1ccccc1 [nintedanib],deterioration of FVC on extended treatment,[1]; extended treatment for up to four years,sustained decline in deterioration of FVC
same,reduction in the rate of decline in FVC,[1],approximately 50%
same,side effects / most common adverse effects,[2],nausea and diarrhea
"CN(c1ncccc1CNc1nc(Nc2ccc3c(c2)CC(=O)N3)ncc1C(F)(F)F)S(C)(=O)=O [PF-562,271]",off-target kinase activity,off-target kinase,significant off-target kinase activity
COc1cc(C2CCN(C)CC2)ccc1Nc1ncc(C(F)(F)F)c(CCc2ccccc2CC(N)=O)n1 [compound of Formula I],unique metabolites,dog hepatocytes,no unique metabolites
same,exposure dose proportionality,[3],dose-proportional exposures
same,S10 selectivity score,467 other kinases,0.02
same,exposure dose proportionality,[4],dose-proportional exposures
same,unique metabolites,rat hepatocytes,no unique metabolites
same,airways resistance (AHR),"[5]; 10 mg/ml methacholine, vs vehicle",no effect on airways resistance
same,"all other measures of AHR (transpulmonary resistance, elastance, compliance)","[5]; dosing from day 7 after bleomycin, 10 mg/ml methacholine, vs vehicle",effectively reversed the AHR
same,lung damage (Ashcroft score),"[5]; dosing from day 7 after bleomycin, day 22, vs vehicle",did not significantly alter bleomycin-induced lung damage
same,"other measures of AHR (transpulmonary resistance, elastance, compliance)",[6]; 10 mg/ml methacholine,did not significantly inhibit other measures of AHR
same,lung damage (Ashcroft score),[6]; 40 mg/kg oral once daily,attenuated bleomycin-induced lung damage
same,airways resistance (AHR),"[6]; 40 mg/kg, 10 mg/ml methacholine",significantly decreased airways resistance
same,lung damage (Ashcroft score),[6]; 80 mg/kg oral once daily,not at 80 mg/kg attenuated bleomycin-induced lung damage
same,airways resistance (AHR),"[6]; 80 mg/kg, 10 mg/ml methacholine",significantly decreased airways resistance
same,unique metabolites,primate hepatocytes,no unique metabolites
same,inhibition of common cytochrome P450s,common cytochrome P450s,no detectable inhibition
same,unique metabolites,human hepatocytes,no unique metabolites
same,exposure dose proportionality,[7],dose-proportional exposures
Cc1ccc(=O)n(-c2ccccc2)c1 [pirfenidone],reduction in the rate of decline in FVC,[1],approximately 50%
same,side effects / most common adverse effects,[2],"diarrhea, photosensitivity and rash"
CNC(=O)c1ccccc1Nc1nc(Nc2ccc(N3CCOCC3)cc2OC)ncc1Cl [TAE226],off-target kinase activity,off-target kinase,significant off-target kinase activity
